Laboratory results reported in US7629502B2, “Non-antibiotic selection marker genes” (Academia Sinica, priority 2006, dated 2009).
“Also recorded” adds a separate entry of the source.

Columns and labels:
Assay type in all cases: in vivo, Arabidopsis thaliana
[1] = tested on: wild-type Arabidopsis; assay: Seedling survival of wild-type Arabidopsis on medium with 5MT or CdCl2; details: WT, 1 week, surviving/seeds
[2] = tested on: wild-type Arabidopsis; assay: as above; details: for seedling survival rate: WT, surviving/seeds; for survival of wild type / non-transformed plants: medium containing 75 μM 5MT or 300 μM CdCl2; for optimum concentration for the selection of putative transformants: wild-type versus transgenic seedlings
Method: (§1) Arabidopsis thaliana (L.) Hyen. ecotype Columbia was grown in controlled environment chambers at 24° C., 70% relative humidity, with 24 h photoperiod (about 120 μmol m^−2s^−1). To transform Arabidopsis plants, we used the floral dip method described previously (Clough and Bent, 1998). To transgenic plants constitutively expressing AtTSB1, were selected on MS medium with 20 ppm hygromycin (Murashige and Skoog 1962). The sensitivity of wild type and transgenic T2 homozygous seeds (T3 generation) to different concentrations of 5MT and CdCl2 were assessed on the basis of the germination percentage of seedlings at the end of 2 weeks. After standardizing the optimal selection concentration of 5MT and CdCl2, the floral dip transformation was again performed to evaluate the selection efficiency between TSB1 and conventional hydromycin selection systems.
(§2) Different concentrations of 5MT (0, 25, 50, 75, 100 and 200 μM) and CdCl2 (0, 50, 100, 200, 300, 400 and 500 μM) were evaluated in order to select the transformants constitutively expressing AtTSB1 gene and in these experiments untransformed wild-types used as negative control. Sixty seeds of each wild-type and transgenic seeds were germinated on medium containing various concentrations of 5MT for 2 weeks, and the number of surviving plants recorded (Table 1). Under all the tested conditions, both wild-type and transgenic seeds could germinate almost equally. […] In the meantime, all seedlings on medium containing less than 50 μM 5MT survived selection even after 2 weeks. Thus, 75 μM 5MT is the optimum concentration for the selection of putative transformants.
(§3) A total of one hundred seeds each of wild-type and transgenic plants were germinated on medium containing different concentrations of CdCl2, for 2 weeks, and the survival was recorded (Table 2). The germination rate in wild-type and transgenic seedlings was almost equal on the medium containing CdCl2 concentrations up to 300 μM. […] All the wild-type and transgenic seedlings survived even after 2 weeks on medium containing CdCl2 less than 100 μM. From these observations, we concluded that 300 μM CdCl2 is the optimal concentration needed for selecting putative transformants.

[3] = tested on: wild-type plants; assay: Free Trp content analysis (GC-MS), wild-type plants
Method: (§4) Two-week old wild-type and transgenic plants were harvested from germination medium with or without 50 μM 5MT. Endogenous free tryptophan analysis was performed described previously (Edlund et al., 1995) with some modification. Cell extracts were prepared from approximately 50 mg dry weight. Frozen tissues were ground with methanol under continuous shaking for 24 h at 4° C. After centrifuged, the supernatant was filtered by 0.22 μm membrane (Millipore Millexg). The filtered solution was reduced to 1 ml in a Speed Vac concentrator. The final solution was extracted by SEP column (Water Oasis HLB6 cc) and use 1 ml methanol to elute the extracts. Each 100 μl sample was methylated with 160 μl pyridine and 40 μl […]-N-trimethylsilyl-trifuoroacetamide at 70° C. for 1 hr. The GC-MS analysis was performed according to conditions described by Edlund et al (Edlund et al., 1995).
(§5) To elucidate the possible relation between the accumulation of free Trp content and resistance to 5MT and CdCl2, free Trp content was measured in AtTSB1 transgenic plants. […] The level in the transgenic plants TM1, TM3 and TM4 was 10- to 15-fold higher (5,900-8,900 pmole/g dry weight) than in wild-type plants (587 pmole/g dry weight). […] A similar trend was observed when TC3, TC4 and TC5 transgenic plants were measured for Trp content, with or without CdCl2.

[4] = tested on: AtTSB1 transgenic Arabidopsis (TH); assay: Seedling survival of AtTSB1 transgenic (TH) Arabidopsis on medium with 5MT or CdCl2; details: for seedling survival rate: TH, surviving/seeds
[5] = tested on: AtTSB1 transgenic Arabidopsis (TH); assay: as above; details: for seedling survival rate: TH, 2 weeks, surviving/seeds; for survival / growth of transgenic plants: medium containing 75 μM 5MT or 300 μM CdCl2
Method: as §1, §2, §3

[6] = tested on: AtTSB1 transgenic plants (TM1, TM3, TM4); assay: Free Trp content analysis (GC-MS), TSB transgenic plants; details: for Endogenous contents of tryptophan: two-week old plants
Method: as §4, §5

Cc1ccc2[nH]cc(C[C@H](N)C(=O)O)c2c1 [5MT, 5-methyl-tryptophan]
seedling survival rate ([1]; 5MT 75 μM): 60/60
seedling survival rate ([1]; 5MT 100 μM): 25/60
growth of wild-type plants ([2]; 75 μM and higher (100 and 200 μM) 5MT, after 2 weeks): turned pale green and ceased to grow
seedling survival rate ([2]; 5MT 25 μM, 1 week): 60/60
seedling survival rate ([2]; 5MT 25 μM, 2 weeks): 24/60
seedling survival rate ([2]; 5MT 50 μM, 1 week): 60/60
seedling survival rate ([2]; 5MT 50 μM, 2 weeks): 10/60
seedling survival rate ([2]; 5MT 75 μM, 2 weeks): 0/60
seedling survival rate ([2]; 5MT 100 μM, 2 weeks): 0/60
seedling survival rate ([2]; 5MT 200 μM, 1 week): 12/60
seedling survival rate ([2]; 5MT 200 μM, 2 weeks): 0/60
survival of wild type / non-transformed plants [2]: did not survive; also recorded: deteriorated
optimum concentration for the selection of putative transformants ([2]; 2 weeks): 75 µM
Endogenous contents of tryptophan ([3]; wild type + 5MT 50 μM, two-week old plants): 125 ± 6 pmole/g g · DW
level of free Trp ([3]; wild-type plants, 5MT in the medium): 125 pmole/g dry weight
reduction of the level of free Trp ([3]; wild-type plants, 5MT in the medium versus without): fivefold
seedling survival rate ([4]; 5MT 50 μM, 1 week): 40/40
seedling survival rate ([4]; 5MT 50 μM, 2 weeks): 60/60
seedling survival rate ([4]; 5MT 75 μM, 1 week): 60/60
seedling survival rate ([4]; 5MT 75 μM, 2 weeks): 60/60
seedling survival rate ([4]; 5MT 100 μM, 1 week): 60/60
seedling survival rate ([4]; 5MT 200 μM, 1 week): 60/60
seedling survival rate ([4]; 5MT 200 μM, 2 weeks): 18/60
resistance of transgenic seedlings ([4]; all concentrations of 5MT tested (100 and 200 μM)): showed resistance
seedling survival rate ([5]; 5MT 25 μM): 60/60
seedling survival rate ([5]; 5MT 100 μM): 34/60
survival / growth of transgenic plants [5]: grew and survived
survival rate ([5]; transgenic seedlings, 75 μM 5MT): 100%
Endogenous contents of tryptophan ([6]; TM1 + 5MT 50 μM): 5,200 ± 14 pmole/g g · DW
Endogenous contents of tryptophan ([6]; TM3 + 5MT 50 μM): 5,100 ± 11 pmole/g g · DW
Endogenous contents of tryptophan ([6]; TM4 + 5MT 50 μM): 7,200 ± 10 pmole/g g · DW
level of free Trp ([6]; transgenic plants TM1, TM3 and TM4, 5MT in the medium): 5,100-7,200 pmole/g dry weight

[Cl][Cd][Cl] [CdCl2]
seedling survival rate ([1]; CdCl2 200 μM): 100/100
seedling survival rate ([1]; CdCl2 300 μM): 80/100
seedling survival rate ([1]; CdCl2 400 μM): 12/100
seedling survival rate ([2]; CdCl2 50 μM, 1 week): 100/100
seedling survival rate ([2]; CdCl2 50 μM, 2 weeks): 100/100
seedling survival rate ([2]; CdCl2 100 μM, 1 week): 100/100
seedling survival rate ([2]; CdCl2 100 μM, 2 weeks): 100/100
seedling survival rate ([2]; CdCl2 200 μM, 2 weeks): 30/100
seedling survival rate ([2]; CdCl2 300 μM, 2 weeks): 0/100
seedling survival rate ([2]; CdCl2 400 μM, 2 weeks): 0/100
seedling survival rate ([2]; CdCl2 500 μM, 1 week): 8/100
seedling survival rate ([2]; CdCl2 500 μM, 2 weeks): 0/100
survival of wild type / non-transformed plants [2]: did not survive; also recorded: deteriorated
optimum concentration for the selection of putative transformants ([2]; 2 weeks): 300 µM
transgenic seedlings greener than controls ([4]; 300 μM CdCl2, after 2 weeks): 98%
seedling survival rate ([4]; CdCl2 50 μM, 1 week): 100/100
seedling survival rate ([4]; CdCl2 50 μM, 2 weeks): 100/100
seedling survival rate ([4]; CdCl2 100 μM, 1 week): 100/100
seedling survival rate ([4]; CdCl2 200 μM, 1 week): 100/100
seedling survival rate ([4]; CdCl2 300 μM, 1 week): 100/100
seedling survival rate ([4]; CdCl2 400 μM, 1 week): 100/100
seedling survival rate ([4]; CdCl2 400 μM, 2 weeks): 80/100
seedling survival rate ([4]; CdCl2 500 μM, 1 week): 100/100
growth of transgenic plants ([5]; 300 μM CdCl2, after 2 weeks): slightly inhibited
seedling survival rate ([5]; CdCl2 100 μM): 100/100
seedling survival rate ([5]; CdCl2 200 μM): 95/100
seedling survival rate ([5]; CdCl2 300 μM): 98/100
seedling survival rate ([5]; CdCl2 500 μM): 62/100
survival / growth of transgenic plants [5]: grew and survived
